Laboratory results published in patent US20150051283A1, “COMPOSITION AND METHOD FOR INHIBITION OF PKNG FROM MYCOBACTERIUM TUBERCULOSIS” (priority 2013, published 2015).

Columns and labels:
[1] = target: PknGΔ74/TPR (Mycobacterium tuberculosis, UniProt P9WI73); type: biochemical
[2] = target: T1, rabbit muscle GAPDH (Oryctolagus cuniculus, UniProt P46406); experiment: Reversibility of GAPDH inhibition by DTT (positive control); type: biochemical; conditions: OA-NO2-inhibited GAPDH
T1 construct: rabbit muscle GAPDH as model protein; from tissue; host or cells: rabbit muscle
Method: FIG. 11A: PknG was inhibited by incubation with OA-NO2 (50 μM) in 70 mM ammonium bicarbonate, pH 8.0 at 25° C. for 10 min, as previously. Kinase activity of PknG inhibited by OA-NO2 was measured (PknG+OA-NO2). Subsequently, nitroalkylated samples were treated with DTT (42 mM) or GSH (24 mM) for 15 min at 25° C. and kinase activity was re-measured (PknG+OA-NO2+RSH). Activity recovery was expressed as a ratio between [activity of PknG+OA-NO2+RSH]/[activity PknG+OA-NO2] where 1 means no activity recovery after thiol-containing agent treatment. GAPDH was used as a positive control: after DTT treatment 90% of the initial activity was recovered representing a 12 fold increase in the enzyme activity after the RSH treatment. […] Three independent experiments were performed FIG. 11B: MALDI-TOF mass spectrum of peptides generated by tryptic digestion of PknG. Upper panel: untreated PknG, middle panel: PknG exposed to OA-NO2 and lower panel: idem middle panel+42 mM DTT. In each panel the native or nitroalkylated form of the peptide with the sequence 122-154 that includes the Rbx-Cys 128 and 131, are shown. […]
We have previously reported that nitrated fatty acids are capable to inhibit GAPDH activity by modification of nucleophilic amino acid residues in a thiol-reversible manner. […] PknG control activity was measured in the presence of the thiol-containing reagents. […]

[3] = target: Xanthine oxidoreductase (XOR) (Homo sapiens, UniProt P47989); conditions: reference [15]; cited from earlier work
Chain of Xanthine oxidoreductase (XOR) (P47989 whole entry): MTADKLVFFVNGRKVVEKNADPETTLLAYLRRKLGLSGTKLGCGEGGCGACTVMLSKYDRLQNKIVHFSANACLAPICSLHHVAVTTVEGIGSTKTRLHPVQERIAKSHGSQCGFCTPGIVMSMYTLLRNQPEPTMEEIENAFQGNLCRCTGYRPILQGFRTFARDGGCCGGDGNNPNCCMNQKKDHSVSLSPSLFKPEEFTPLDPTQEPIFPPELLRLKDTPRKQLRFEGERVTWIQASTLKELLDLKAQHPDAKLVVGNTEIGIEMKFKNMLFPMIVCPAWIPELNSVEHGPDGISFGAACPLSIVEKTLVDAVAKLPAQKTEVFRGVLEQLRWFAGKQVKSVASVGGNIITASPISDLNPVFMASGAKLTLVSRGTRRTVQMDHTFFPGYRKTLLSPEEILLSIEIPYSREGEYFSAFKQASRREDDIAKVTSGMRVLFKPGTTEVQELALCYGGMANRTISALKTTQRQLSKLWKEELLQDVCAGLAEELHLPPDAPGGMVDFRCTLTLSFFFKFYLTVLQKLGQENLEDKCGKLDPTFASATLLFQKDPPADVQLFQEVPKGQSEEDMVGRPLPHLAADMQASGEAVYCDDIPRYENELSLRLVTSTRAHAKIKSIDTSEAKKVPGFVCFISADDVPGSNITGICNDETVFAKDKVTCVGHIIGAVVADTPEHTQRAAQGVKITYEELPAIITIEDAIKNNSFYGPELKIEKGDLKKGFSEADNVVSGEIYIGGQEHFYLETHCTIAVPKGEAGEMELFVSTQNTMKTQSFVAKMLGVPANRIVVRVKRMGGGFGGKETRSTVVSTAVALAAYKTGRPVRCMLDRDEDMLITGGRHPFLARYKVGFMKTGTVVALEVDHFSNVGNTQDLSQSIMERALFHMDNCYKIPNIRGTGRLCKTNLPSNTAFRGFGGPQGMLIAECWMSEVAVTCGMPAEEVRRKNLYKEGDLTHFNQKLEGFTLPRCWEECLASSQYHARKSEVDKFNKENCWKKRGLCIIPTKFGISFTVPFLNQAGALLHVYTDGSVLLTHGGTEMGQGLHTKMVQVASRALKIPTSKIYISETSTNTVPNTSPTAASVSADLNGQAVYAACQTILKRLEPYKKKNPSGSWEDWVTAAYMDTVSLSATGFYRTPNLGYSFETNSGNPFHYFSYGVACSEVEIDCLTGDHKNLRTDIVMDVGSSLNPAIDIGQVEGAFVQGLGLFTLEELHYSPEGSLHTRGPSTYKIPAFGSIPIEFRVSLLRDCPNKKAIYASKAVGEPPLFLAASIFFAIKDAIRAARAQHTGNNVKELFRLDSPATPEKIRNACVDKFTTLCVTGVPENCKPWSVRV

T1 sequence (P46406 whole entry): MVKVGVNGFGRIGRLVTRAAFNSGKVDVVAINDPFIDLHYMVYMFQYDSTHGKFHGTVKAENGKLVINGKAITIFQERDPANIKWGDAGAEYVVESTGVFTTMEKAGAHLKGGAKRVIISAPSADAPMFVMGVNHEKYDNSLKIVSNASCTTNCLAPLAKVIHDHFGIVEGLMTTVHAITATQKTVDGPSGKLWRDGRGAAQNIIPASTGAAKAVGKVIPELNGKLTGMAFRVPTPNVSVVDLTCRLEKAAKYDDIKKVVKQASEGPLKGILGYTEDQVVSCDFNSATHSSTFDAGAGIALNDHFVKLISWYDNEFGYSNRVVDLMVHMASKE
Chain of PknGΔ74/TPR (P9WI73 whole entry, looked up, stated change not applied): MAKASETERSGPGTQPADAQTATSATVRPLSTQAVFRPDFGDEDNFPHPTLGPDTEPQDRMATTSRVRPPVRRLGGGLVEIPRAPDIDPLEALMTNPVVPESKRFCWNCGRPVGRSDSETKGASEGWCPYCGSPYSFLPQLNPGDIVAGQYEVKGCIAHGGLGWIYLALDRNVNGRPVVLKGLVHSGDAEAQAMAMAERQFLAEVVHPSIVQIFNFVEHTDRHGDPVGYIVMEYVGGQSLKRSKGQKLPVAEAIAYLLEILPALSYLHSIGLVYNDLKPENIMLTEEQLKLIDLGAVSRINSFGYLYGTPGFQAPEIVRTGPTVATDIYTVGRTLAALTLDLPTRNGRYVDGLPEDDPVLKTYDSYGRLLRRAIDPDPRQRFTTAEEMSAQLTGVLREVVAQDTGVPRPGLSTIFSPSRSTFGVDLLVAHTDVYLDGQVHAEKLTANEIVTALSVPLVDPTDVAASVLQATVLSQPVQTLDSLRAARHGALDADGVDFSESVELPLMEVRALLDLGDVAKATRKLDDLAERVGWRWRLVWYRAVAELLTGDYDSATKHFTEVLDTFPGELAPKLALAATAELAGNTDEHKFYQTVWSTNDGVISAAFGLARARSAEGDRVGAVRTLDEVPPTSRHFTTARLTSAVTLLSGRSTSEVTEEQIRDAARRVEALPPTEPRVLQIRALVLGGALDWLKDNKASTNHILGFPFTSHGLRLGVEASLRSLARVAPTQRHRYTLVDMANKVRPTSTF

Q: With “9- and 10-nitro-octadeca-9-cis-enoic acid [OA-NO2]” as the substance, how does the “enzyme inhibition of PknGΔ74/TPR” value [1] read?
A: Its value is “fully inhibited”.

Q: And the “increase in GAPDH activity after RSH treatment” value [2]?
A: Its value is 12 fold.

Q: And the “initial GAPDH activity recovered after DTT treatment” value [2]?
A: The value was 90%.

Q: And the “XOR inhibition, reversibility” value [3]?
A: Its value is “not reversed by thiol reagents”.
